# Where “and” joins values, the source holds several entries; their conditions need not be identical. Equal values may be shown once.
# How the values were obtained:
# [1] = test system: phosphorylation of ROS1, AKT, ERK in NIH-3T3 (CD74-ROS1) cells; assay: Western blot of ROS1 and downstream signaling phosphorylation; type: cell-based; conditions: 2 h incubation
# Description: (§1) In general, the cells were exposed to the drug and were harvested for western blot analysis. SDS-PAGE was used to separate the proteins of interest, which were then transferred to a nitrocellulose (NC) filtration membrane and soaked in a blocking solution [5% non-fat dry milk in tris-buffered saline with Tween 20 (TBST)] for 1 h at room temperature. Thereafter, the membrane was probed overnight with primary antibodies at 4℃ and washed three times with TBST. The corresponding secondary antibody diluent was added, incubated at room temperature for 1 h, and washed 3 times with TBST. After adding the enhanced chemiluminescence developer to the NC filtration membrane, it is developed in the imaging system (ChemiDoc™ XRS^+, BIO-RAD). See Supplementary Table 2 for details of the antibodies used.
# (§2) It is reported that ROS1-mediated cell signaling pathways include RAS-RAF-MEK-ERK, PI3K-AKT-mTOR and JAK-STAT3 pathways. According to reports and the differences in the expression of signaling pathway proteins in different cells, the key signaling proteins in different signaling pathways were selected for research.
# [2] = test system: phosphorylation of ROS1, ERK, SHP-1 in Ba/F3 (SLC34A2-ROS1) cells; assay: as above; type: cell-based; conditions: 2 h incubation
# Description: as §1, §2
# OATP1B1 = target: T1, OATP1B1 (Homo sapiens, UniProt Q9Y6L6); assay: Uptake substrate investigation in HEK293 cells expressing transporter; type: in vitro ADME; conditions: for Ratio of uptake transit activity / Uptake transport activity, Net value: OATP1B1-293 vs MOCK293
# T1 construct: No ESH6G27; host or cells: HEK293
# T1 sequence (Q9Y6L6 1-691): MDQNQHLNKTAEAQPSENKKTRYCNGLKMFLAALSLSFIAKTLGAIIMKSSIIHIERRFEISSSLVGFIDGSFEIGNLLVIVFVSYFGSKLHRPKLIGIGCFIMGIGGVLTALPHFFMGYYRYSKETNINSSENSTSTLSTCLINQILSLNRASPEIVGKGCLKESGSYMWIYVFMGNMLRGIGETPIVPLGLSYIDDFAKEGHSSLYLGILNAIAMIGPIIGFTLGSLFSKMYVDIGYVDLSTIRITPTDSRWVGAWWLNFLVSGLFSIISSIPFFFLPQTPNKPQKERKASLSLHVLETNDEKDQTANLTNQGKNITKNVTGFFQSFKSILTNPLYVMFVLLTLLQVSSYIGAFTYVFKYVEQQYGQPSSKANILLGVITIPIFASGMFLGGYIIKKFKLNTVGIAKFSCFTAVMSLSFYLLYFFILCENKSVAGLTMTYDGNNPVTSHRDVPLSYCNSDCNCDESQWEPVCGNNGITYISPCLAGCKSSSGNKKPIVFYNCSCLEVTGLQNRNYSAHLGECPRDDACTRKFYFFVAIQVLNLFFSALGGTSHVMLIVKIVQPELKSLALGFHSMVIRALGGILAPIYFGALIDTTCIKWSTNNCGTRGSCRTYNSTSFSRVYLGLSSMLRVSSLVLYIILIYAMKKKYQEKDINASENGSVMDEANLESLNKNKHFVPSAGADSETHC
# OCT2 = target: T2, OCT2 (Homo sapiens, UniProt O15244); assay: as above; type: in vitro ADME; conditions: for Uptake transport activity, Mean / Ratio of uptake transit activity / Uptake transport activity, Net value: Suppl. Table 11; for Ratio of uptake transit activity / Uptake transport activity, Net value: OCT2-293 vs MOCK293
# T2 construct: No ESH9G27; host or cells: HEK293
# T2 sequence (O15244 1-555): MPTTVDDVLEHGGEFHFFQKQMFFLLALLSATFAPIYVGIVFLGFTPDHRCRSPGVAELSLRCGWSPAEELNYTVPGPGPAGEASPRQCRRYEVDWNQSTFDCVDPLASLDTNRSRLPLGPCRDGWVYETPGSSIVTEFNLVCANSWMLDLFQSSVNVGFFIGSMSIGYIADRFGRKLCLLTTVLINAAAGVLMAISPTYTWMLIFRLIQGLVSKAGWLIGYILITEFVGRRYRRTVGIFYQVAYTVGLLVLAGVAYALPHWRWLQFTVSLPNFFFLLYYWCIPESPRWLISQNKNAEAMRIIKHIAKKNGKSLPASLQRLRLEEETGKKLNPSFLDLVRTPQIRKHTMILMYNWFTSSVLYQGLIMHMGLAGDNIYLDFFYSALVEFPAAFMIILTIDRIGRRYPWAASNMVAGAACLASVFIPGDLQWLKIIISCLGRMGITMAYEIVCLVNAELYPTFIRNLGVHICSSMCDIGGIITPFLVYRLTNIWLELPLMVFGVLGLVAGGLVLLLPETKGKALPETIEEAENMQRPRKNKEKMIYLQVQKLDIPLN
# [3] = MOCK293, test substrate 10 μM, no inhibitor, pre-test
# [4] = OATP1B1-293, test substrate 10 μM, no inhibitor, pre-test
# [5] = test substrate 10 μM, no inhibitor, pre-test
smiles,measurement,setting,value
COc1cc(N2CCC3(CCN(C)CC3)CC2)ccc1Nc1ncc(Cl)c(Nc2ccccc2P(C)(C)=O)n1 [Iruplinalkib],"phosphorylation levels of ROS1, AKT, ERK",[1],inhibited
same,"phosphorylation levels of ROS1, ERK, SHP-1",[2],inhibited
same,"uptake transport activity ratio, OATP1B1","OATP1B1; 30 µM, 3 µM, 0.3 µM, HEK293",less than two
same,uptake substrate of OATP1B1,OATP1B1; HEK293,not an uptake substrate
same,"Uptake transport activity, Mean","OATP1B1; MOCK293 (OATP1B1 set), 0.3 μM, Suppl. Table 11",7.468 pmol/mg protein/min
same,"Uptake transport activity, Mean","OATP1B1; MOCK293 (OATP1B1 set), 3 μM, Suppl. Table 11",54.18 pmol/mg protein/min
same,"Uptake transport activity, Mean","OATP1B1; MOCK293 (OATP1B1 set), 30 μM, Suppl. Table 11",601.2 pmol/mg protein/min
same,"Uptake transport activity, Mean",OATP1B1; [3],102.0 pmol/mg protein/min
same,"Uptake transport activity, Repeat 1 / Repeat 2",OATP1B1; [3],100.4 pmol/mg protein/min and 103.6 pmol/mg protein/min
same,"Uptake transport activity, Mean","OATP1B1; OATP1B1-293, 0.3 μM, Suppl. Table 11",8.227 pmol/mg protein/min
same,"Uptake transport activity, Mean","OATP1B1; OATP1B1-293, 3 μM, Suppl. Table 11",46.74 pmol/mg protein/min
same,"Uptake transport activity, Mean","OATP1B1; OATP1B1-293, 30 μM, Suppl. Table 11",564.7 pmol/mg protein/min
same,"Uptake transport activity, Mean",OATP1B1; [4],55.08 pmol/mg protein/min
same,"Uptake transport activity, Repeat 1 / Repeat 2",OATP1B1; [4],50.74 pmol/mg protein/min and 59.41 pmol/mg protein/min
same,Ratio of uptake transit activity,"OATP1B1; 0.3 μM, Suppl. Table 11",1.10
same,"Uptake transport activity, Net value","OATP1B1; 0.3 μM, Suppl. Table 11",0.759 pmol/mg protein/min
same,Ratio of uptake transit activity,"OATP1B1; 3 μM, Suppl. Table 11",0.86
same,"Uptake transport activity, Net value","OATP1B1; 3 μM, Suppl. Table 11",-7.440 pmol/mg protein/min
same,Ratio of uptake transit activity,"OATP1B1; 30 μM, Suppl. Table 11",0.94
same,"Uptake transport activity, Net value","OATP1B1; 30 μM, Suppl. Table 11",-36.47 pmol/mg protein/min
same,Ratio of uptake transit activity,OATP1B1; [5],0.54
same,"Uptake transport activity, Net value",OATP1B1; [5],-46.9 pmol/mg protein/min
same,"uptake transport activity ratio, OCT2","OCT2; 30 µM, 3 µM, 0.3 µM, HEK293",less than two
same,uptake substrate of OCT2,OCT2; HEK293,not an uptake substrate
same,"Uptake transport activity, Mean","OCT2; MOCK293 (OCT2 set), 0.3 μM",7.280 pmol/mg protein/min
same,"Uptake transport activity, Mean","OCT2; MOCK293 (OCT2 set), 3 μM",80.35 pmol/mg protein/min
same,"Uptake transport activity, Mean","OCT2; MOCK293 (OCT2 set), 30 μM",999.8 pmol/mg protein/min
same,"Uptake transport activity, Mean","OCT2; OCT2-293, 0.3 μM",8.178 pmol/mg protein/min
same,"Uptake transport activity, Mean","OCT2; OCT2-293, 3 μM",88.23 pmol/mg protein/min
same,"Uptake transport activity, Mean","OCT2; OCT2-293, 30 μM",1165.9 pmol/mg protein/min
same,Ratio of uptake transit activity,OCT2; 0.3 μM,1.12
same,"Uptake transport activity, Net value",OCT2; 0.3 μM,0.90 pmol/mg protein/min
same,Ratio of uptake transit activity,OCT2; 3 μM,1.10
same,"Uptake transport activity, Net value",OCT2; 3 μM,7.88 pmol/mg protein/min
same,Ratio of uptake transit activity,OCT2; 30 μM,1.17
same,"Uptake transport activity, Net value",OCT2; 30 μM,166.05 pmol/mg protein/min
